Measurements: US10603369B2, “Combination vaccines with lower doses of antigen and/or adjuvant” (GlaxoSmithKline Biologicals SA, priority 2011, dated 2020)
Converted amounts (≈) assume the structure as drawn.

Key:
[1] = Adsorption of TLR agonist to aluminium hydroxide adjuvant; format: physicochemical
physchem = conditions: water

adsorption to aluminium hydroxide [1]: adsorbs well | solubility (physchem): ~4000 µg/mL (≈ 6.78 mM)
SMILES: Cc1ccc2c(c1)nc(N)c1ncc(CCc3ccc(OCCOCCOCCC(F)(F)P(=O)(O)O)cc3C)cc12 [compound T]
